Measurements published in ChEMBL document CHEMBL1201862, “PubChem BioAssay data set” (2004).
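Compound exposure: 48 hours, 5 concentrations, 96-well plates. The concentration for 50% growth inhibition is given as GI50.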 Activity calls are given as the source filed them. Rule as the data show it: active = GI50 up to about 1.1 µM and inactive = higher.

Tests used:
Assay in all cases: NCI-60 cell line screen, 48 h
[1] = test system: RPMI-8226
[2] = test system: NCI-H226
[3] = test system: MDA-MB-231
[4] = test system: MDA-N
[5] = test system: DU-145
[6] = test system: NCI/ADR-RES
[7] = test system: PC-3
[8] = test system: MDA-MB-435
[9] = test system: SK-MEL-5
[10] = test system: OVCAR-8
[11] = test system: MCF7
[12] = test system: HT-29
[13] = test system: BT-549
[14] = test system: SF-539
[15] = test system: T47D
[16] = test system: HOP-62
[17] = test system: 786-0
[18] = test system: Hs-578T
[19] = test system: SR

Measured: GI50

CCc1ccc2nc(-c3ccc(O)cc3)sc2c1
inactive: [1] 13.9 µM | [2] 13.2 µM | [3] 13.2 µM | [4] 18.5 µM | [5] 15 µM | [6] 13.5 µM | [7] 12.6 µM | [8] 19.2 µM | [9] 17.8 µM | [10] 19.5 µM | [11] 20.2 µM | [12] 16.6 µM | [13] 16.3 µM | [14] 11.7 µM

COc1ccc(C[C@H]2COC(=O)[C@@H]2Cc2cccc(Br)c2)cc1OC
inactive: [1] 17.8 µM | [2] 29.9 µM | [15] 27.7 µM | [16] 31.4 µM | [3] 19.1 µM | [4] 20.7 µM | [17] 28.1 µM | [18] 32.3 µM | [19] 3.05 µM | [5] 33.3 µM | [6] 24.2 µM | [7] 15.8 µM | [8] 26.6 µM | [9] 15.7 µM | [10] 24.4 µM | [11] 16.2 µM | [12] 21.8 µM | [13] 13.9 µM | [14] 19.5 µM

CN1C(=O)N(C)C2(CCN(CC(CC3OCCO3)c3ccc(F)cc3)CC2)C1=O (configuration not stated)
inactive: [1] > 100 µM | [2] > 100 µM | [15] > 100 µM | [16] > 100 µM | [3] > 100 µM | [4] > 100 µM | [17] > 100 µM | [18] > 100 µM | [19] > 100 µM | [5] > 100 µM | [6] > 100 µM | [7] > 100 µM | [8] > 100 µM | [9] > 100 µM | [10] > 100 µM | [11] > 100 µM | [12] > 100 µM | [13] > 100 µM | [14] > 100 µM

O=C(Nc1nccs1)c1c(O)nc2sccn2c1=O
inactive: [1] > 10 µM | [2] > 10 µM | [15] > 10 µM | [16] > 10 µM | [3] > 10 µM | [4] > 10 µM | [18] > 10 µM | [19] > 10 µM | [5] > 10 µM | [6] > 10 µM | [7] > 10 µM | [8] > 10 µM | [9] > 10 µM | [10] > 10 µM | [11] > 10 µM | [12] > 10 µM | [14] > 10 µM

C[Si](C)(N[Si](C)(C)OCCc1ccccc1)OCCc1ccccc1
inactive: [1] > 100 µM | [2] > 100 µM | [15] > 100 µM | [16] > 100 µM | [4] > 100 µM | [17] > 100 µM | [5] > 100 µM | [6] > 100 µM | [7] > 100 µM | [8] > 100 µM | [9] > 100 µM | [10] > 100 µM | [11] > 100 µM | [12] > 100 µM | [13] > 100 µM

O=C(CCc1ccc(O)cc1)NCCc1cccc(O)c1
inactive: [15] > 50 µM | [16] > 50 µM | [3] > 50 µM | [4] > 50 µM | [17] > 50 µM | [18] > 50 µM | [19] > 50 µM | [5] > 50 µM | [6] > 50 µM | [7] > 50 µM | [8] > 50 µM | [9] > 50 µM | [10] > 50 µM | [11] > 50 µM | [12] > 50 µM | [13] > 50 µM | [14] > 50 µM

CC(=O)c1ccc(NC(=O)/C(CC(=O)/C=C/c2ccccc2)=N/NC(N)=S)cc1
inactive: [1] 69.3 µM | [2] > 100 µM | [15] 32.6 µM | [16] > 100 µM | [3] > 100 µM | [4] > 100 µM | [17] > 100 µM | [18] > 100 µM | [19] > 100 µM | [6] 50 µM | [7] > 100 µM | [8] > 100 µM | [9] 43.7 µM | [10] 87.7 µM | [11] 34.4 µM | [12] 41.5 µM | [13] > 100 µM | [14] > 100 µM

NC(CP(=O)(O)O)C(=O)O (configuration not stated)
inactive: [1] > 100 µM | [2] > 100 µM | [15] > 100 µM | [16] > 100 µM | [3] > 100 µM | [4] > 100 µM | [17] > 100 µM | [18] > 100 µM | [19] > 100 µM | [5] > 100 µM | [6] > 100 µM | [7] > 100 µM | [8] > 100 µM | [9] > 100 µM | [10] > 100 µM | [11] > 100 µM | [12] > 100 µM | [13] > 100 µM
